Source: patent publication US20240269128A1, “COMPOUNDS FOR TREATING OR PREVENTING ALZHEIMER'S DISEASE” (THE UNITED STATES OF AMERICA, as represented by the …, priority 2021, published 2024)

Tests used:
[1] = test system: BV-2 cells; experiment: Aβ1-42 clearance Protonex assay; format: cell-based, mouse; conditions: 25 μM HCQ pretreatment, Protonex Green label
Description: Aβ1-42 clearance-Protonex assay: For Abeta (Aβ1-42) clearance Protonex assay, 5000 BV-2 cells per well (uncoated 96 well plates) were plated out. After changing cells to treatment medium, HCQ (25 μM) was applied 1 hour before stimulation with Protonex™ Green 500, SE (21216, AAT Bioquest) labelled Aβ1-42 (Bachem 4061966; final concentration in well: 200 ng/ml (dilutions in medium)). Cells treated with vehicle and cells treated with Aβ1-42 alone served as controls. After 3 h of Aβ1-42 stimulation, cells were imaged on Cytation 5 multimode reader (Biotek) and green fluorescence was measured.

[2] = molecular target: T1, STAT3 (Homo sapiens, UniProt P40763); experiment: Western blot of p-STAT3 in tau phosphorylation assay; format: cell-based
T1 construct: endogenous in cells; host or cells: HMC3 (ATCC CRL-3304), 1321N1 (Sigma-Aldrich), SK-N-BE(2)-M17 (ATCC CRL-2267)
T1 sequence (P40763 whole entry): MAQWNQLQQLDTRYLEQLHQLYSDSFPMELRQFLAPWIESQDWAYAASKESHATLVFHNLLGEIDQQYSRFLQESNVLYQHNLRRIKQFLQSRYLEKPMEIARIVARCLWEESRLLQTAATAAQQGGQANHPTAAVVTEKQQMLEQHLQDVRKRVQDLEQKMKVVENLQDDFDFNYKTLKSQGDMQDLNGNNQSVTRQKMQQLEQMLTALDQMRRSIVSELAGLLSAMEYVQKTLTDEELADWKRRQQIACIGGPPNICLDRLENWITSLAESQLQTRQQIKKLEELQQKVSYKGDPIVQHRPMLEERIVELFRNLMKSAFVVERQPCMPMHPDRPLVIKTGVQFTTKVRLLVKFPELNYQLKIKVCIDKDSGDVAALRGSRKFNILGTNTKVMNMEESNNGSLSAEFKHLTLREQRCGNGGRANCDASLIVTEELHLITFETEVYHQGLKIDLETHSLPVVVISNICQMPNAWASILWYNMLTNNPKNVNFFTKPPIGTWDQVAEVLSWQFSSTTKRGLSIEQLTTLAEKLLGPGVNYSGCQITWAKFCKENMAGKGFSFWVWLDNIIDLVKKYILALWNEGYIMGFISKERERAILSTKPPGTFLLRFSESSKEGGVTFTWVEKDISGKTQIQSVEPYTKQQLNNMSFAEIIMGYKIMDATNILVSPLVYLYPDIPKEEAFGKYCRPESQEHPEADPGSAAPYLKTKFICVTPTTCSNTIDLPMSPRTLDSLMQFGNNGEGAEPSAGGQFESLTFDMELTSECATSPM
Description: Western blot analyses: Samples for western blot analyses were prepared from 3 assays which provided evidence of HCQ-associated rescue (i.e., Ab1-42 clearance, tau phosphorylation, and LPS-induced neuroinflammation). Samples were prepared identically as described above in section: Effect of HCQ on AD-related phenotypes in cell culture, and scaled up to 24-well format to allow for adequate sample volume. After HCQ treatment, cells were washed once with PBS and harvested in 50 μl 50 mM HEPES+2% SDS lysis buffer. The extracts were then boiled at 95° C. for 5 mins. Analytic methods were identical to those described above in Example 4.
Statistical analyses: Statistical analysis was performed using STATA 16.1. Group differences were evaluated using two-sample t-tests (parametric) to calculate differences in p-STAT3 levels between HCQ treated and control samples. We additionally used the Wilcoxon rank-sum test (non-parametric) to confirm that results were robust to distributional assumptions. Significant differences were indicated as p<0.05.

[3] = test system: 5xFAD mice; experiment: Plasma NfL in 5xFAD mice (NF-light ELISA); format: in vivo, mouse; conditions: compared to saline-treated transgenic mice
Description: HCQ nano (poly(L-lysine succinylated)-HCQ, or PLS-HCQ) preparation: 2.5 mL of saline were added to each vial of lyophilized material on each dose day and vortexed briefly to mix. Fresh vials were prepared daily. Solution was pale yellow in color and was protecedt from light. Remaining material was discardedafter animals were successfully dosed each day. […] 100 mg/kg, i.p. injection 10 μL/g b.w.
TUDCA preparation: Dissolved in saline; treatment dosage 500 mg/kg; i.p. injection 10 μL/g b.w.
Animal management: Animals were housed in individual ventilated cages on standardized rodent bedding supplied by Rettenmaier. Each cage contained a maximum of five mice. The temperature in the keeping room was maintained between 20 to 24° C. and the relative humidity was maintained between 45 to 65%. Animals were housed under a constant light-cycle (12 hours light/dark). […]
The NF-light® (Neurofilament-light) ELISA 10-7001 CE from UmanDiagnostics was used for analysis. The following samples were analyzed: terminal CSF, terminal blood plasma as well as all 4 timepoints from the in vivo bleedings from 6 animals per groups (3 groups; 18 animals, 108 samples in total). Samples were diluted (1:3 for plasma, 1:35 for CSF) in assay buffer and analyzed according to the manufacturers protocol. CSF and in vivo samples are analyzed in single replicates only, due to limited sample volume. […]

Row | p-STAT3 (Tyr705) ([2]; 25 μM and 2.5 μM, relative to VC) | p-STAT3 (Ser727) ([2]; 25 μM, 2.5 μM and 0.25 μM) | SMILES | microglial uptake of Aβ1-42 into acidic cellular compartments [1] | peak in plasma NfL levels ([3]; 100 mg/kg i.p.) | peak plasma NfL levels ([3]; 500 mg/kg i.p.)
1 | lowered | lowered | CCN(CCO)CCCC(C)Nc1ccnc2cc(Cl)ccc12 (centres unmarked) [HCQ, hydroxychloroquine] | enhances | partially lowered | –
2 | – | – | C[C@H](CCC(=O)NCCS(=O)(=O)O)[C@H]1CC[C@H]2[C@@H]3[C@@H](O)C[C@@H]4C[C@H](O)CC[C@]4(C)[C@H]3CC[C@]12C [TUDCA, tauroursodeoxycholic acid] | – | – | partially lowered
